Measured values published in US8519183B2, “Uses for amino acid anticonvulsants” (Research Corporation Technologies, Inc., priority 2000, dated 2013).
Where “and” joins values, the source holds several entries; their conditions need not be identical. Identical values can stand only once.

Assays:
male ICR mice = experiment: radiant heat induced tail flick response; assay type: in vivo
Description: Groups of 4 male ICR mice weighing 22±2 gms were employed. A dose (30 mg/kg) of test compound dissolved in a vehicle of saline was administered intraperitoneally. The control group received vehicle alone. At pretreatment (0 minute) a focused beam of radiant heat was applied to the middle dorsal surface of the tail to elicit a tail flick response within 6-7.5 seconds in pre-treated animals. A maximum cut-off time of 15 seconds was set. The time required to elicit a pain response was recorded for each animal at 0 and 30 minutes following administration of test compound. Prolongation by 50 percent or more (≧50%) of the time required to elicit a tail flick indicated analgesic activity.

NMDA receptor = NMDA receptor (Mus musculus, UniProt P35438); experiment: NMDA receptor agonism/antagonism after ICVT administration
Description: Test substance was administered ICVT (intracerebroventricular, 30 μg in 5 μl/mouse). The appearance of convulsions/mortality in 2 or more (≧2) of 3 ICR derived male or female mice weighing 22±2 gms within the 5 minutes thereafter would indicate NMDA receptor agonism. At a dose where no significant agonist activity was seen within 5 minutes, ability to inhibit NMDA (60 mg/kg IV)—induced Tonic convulsions/mortality in 2 or more (≧2) of 3 ICR derived male or female mice weighing 22±gms within the following 5 minutes indicated NMDA receptor antagonist activity.

glycineb/D-serine site = biological target: T1, glycineb/D-serine site (Rattus norvegicus, UniProt P35439); experiment: threshold extension in rats, reversal by D-serine; assay type: in vivo; details: a glycine agonist, dose dependent fashion
T1 construct: from tissue; host or cells: living rat (in vivo)

[1] = system: ICR derived male or female mice; experiment: Analgesia, Acetic Acid Writhing; assay type: in vivo; details: for No. of Writhes, X ± SEM: group of 3 mice; for No. of Writhes (individual animal): one hour before acetic acid, 5 to 10 minute period; for % Inh.: relative to vehicle control
Source text: In the first animal study in Example 1, the degree of pain experienced by the mice after injection by acetic acid is seen by the number of writhes. If the mice experience no pain, there is no writhing.
The protocol is based on the acetic acid writhing test in mice, developed by R. Koster, et al. Fed. Proc, 18, 412 […], and referred to a Koster test and Hunskarai, S., et al., J. Neuroscience Meth. 14: 69-76, 1985.
Reduction in the number of writhes by 50 percent or more (≧50%) per group of animals observed during the 5 to 10 minute period after acetic acid administration, relative to a vehicle treated control group, indicated analgesic activity.

[2] = biological target: glycine strychnine-insensitive site of the NMDA receptor complex (Homo sapiens, UniProt Q05586); experiment: affinity at the glycine strychnine-insensitive site of the NMDA receptor complex; assay type: binding
[3] = system: ICR derived male or female mice; experiment: formalin induced hind paw licking; assay type: in vivo; details: for Licking Time, Ave.: 5 mice
Description: The degree of pain is determined by measuring the decrease in the amount of time the animal spends licking the formalin-injected paw after administration of the drug.
Reduction of the induced hind paw licking time recorded during the following 20 to 30 minutes period by 50 percent or more (50%) indicated analgesic activity.

[4] = biological target: T2, serotonin 5-HT1A receptor (Rattus norvegicus, UniProt P19327); experiment: 5-MeODMT-induced head twitch; assay type: in vivo, rats
T2 construct: from tissue; host or cells: living Long Evans derived rat (in vivo)
T2 sequence (P19327 1-422): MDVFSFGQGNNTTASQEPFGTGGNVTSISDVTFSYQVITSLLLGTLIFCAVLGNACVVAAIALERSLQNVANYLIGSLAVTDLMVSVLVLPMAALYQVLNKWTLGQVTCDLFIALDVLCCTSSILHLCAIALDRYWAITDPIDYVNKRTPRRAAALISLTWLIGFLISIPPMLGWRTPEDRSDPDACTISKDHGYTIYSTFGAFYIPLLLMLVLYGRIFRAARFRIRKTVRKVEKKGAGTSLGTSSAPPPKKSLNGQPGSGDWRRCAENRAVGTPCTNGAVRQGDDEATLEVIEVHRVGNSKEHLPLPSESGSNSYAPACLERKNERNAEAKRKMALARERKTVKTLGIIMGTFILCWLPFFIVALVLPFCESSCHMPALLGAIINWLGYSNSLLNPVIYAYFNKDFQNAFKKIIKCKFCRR
Description: Test substance was administered PO (30 mg/kg) to a group of 3 Long Evans derived male or female rats weighing 150±20 gms one hour before injection of 5-MeODMT (5-methoxy-N,N-dimethyltryptamine, 3 mg/kg IP).

## COC[C@@H](NC(C)=O)C(=O)NCc1ccccc1 [Compound I, (R)-2-Acetamido-N-benzyl-3-methoxypropionamide]
Male ICR mice; 30 mg/Kg
  radiant heat induced tail flick response (in words): unaffected
Male ICR mice; 30 mg/kg IP
  % Inh.: 0%
Male ICR mice; 30 mg/kg IP, 30 minutes after administration, cut-off 15 seconds
  Response Time 30 Min. (individual animal): 5.8 and 5.0 and 6.0 and 6.2
Male ICR mice; 30 mg/kg IP, mean of 4 mice
  Response Time 30 Min., X: 5.8
Male ICR mice; 30 mg/kg IP, mean of 4 mice, pretreatment
  Response Time 0 Min., X: 6.7
Male ICR mice; 30 mg/kg IP, pretreatment (0 minute)
  Response Time 0 Min. (individual animal): 6.4 (2×) and 7.3 and 6.5
NMDA receptor; 30 μg/mouse, after intracerebroventricular administration
  animals showing tremors without convulsions: 2 out of 3
NMDA receptor; ICVT 30 μg/mouse, N 3
  Agonism (mice with convulsions/mortality within 5 minutes): 0
  Antagonism (mice protected from NMDA 60 mg/kg IV induced tonic convulsions/mortality): 1
glycineb/D-serine site
  effects on threshold extension in rats, reversal by D-serine: can be reversed by D-serine
[1]; 30 mg/kg PO
  No. of Writhes, X ± SEM: X ± SEM 15 ± 1.7
  No. of Writhes (individual animal): 18 and 12 and 15
  % Inh.: 4%
[1]; 100 mg/kg PO
  No. of Writhes, X ± SEM: X ± SEM 0 ± 0
  No. of Writhes (individual animal): 0
  % Inh.: 100%
[1]; 100 mg/kg, 15 minutes after oral administration, mice
  animals showing slight convulsions: Compound I, at a dose of 100 mg/kg, 3 out of 3 animals showed slight convulsions 15 minutes after oral administration.
[2]
  IC50: 5.3 µM
[3]; 30 mg/kg PO
  % Inh.: 22%
  Licking Time, Ave.: 100 s
[3]; 100 mg/kg PO
  % Inh.: 100%
  Licking Time, Ave.: 0 s
[3]; 100 mg/kg PO, 20 to 30 minutes after formalin
  Licking Time, Indiv.: 0 s
[3]; 100 mg/kg, at 15 minutes after oral administration, mice
  animals showing slight convulsions: Compound I, at a dose of 100 mg/kg, 5 out of 5 animals showed slight convulsions at 15 minutes after oral administration.
[4]; 30 mg/Kg PO
  potentiation of 5-MeODMT-induced heat twitch: No potentiation
[4]; 30 mg/kg PO, 3 rats
  Head Twitch, Ave.: 1
